This test concerns Human Pan T Cell (IL-2 release). The test is described as follows: IL2 released by human pan T cell upon anti-CD3/anti-CD28 stimulation (ELISA). The conditions noted are these: human pan T cells; for maximal fold induction / EC50 / EC (2-fold response): Homo sapiens, T-cell; for maximal fold induction / EC (2-fold response): 48 h; for maximal fold induction: response of IL-2 over DMSO control, anti-CD3/anti-CD28, 48 hours, ELISA, read-out: IL-2 Max Fold Response; for EC50: IL-2 response, calculated with GraphPad Prism; for EC (2-fold response) / EC2x (nM): concentration of compound that gives 200% IL-2 response (2 folds) over DMSO control. In kind it is cell-based. In a few lines:
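Primary human pan-T cells, negatively isolated from PBMC, plated at 100,000 cells/well and stimulated with immobilized anti-CD3 plus soluble anti-CD28 in presence of test compound at varying concentrations. After 2 days, secreted IL-2 in supernatant quantified by ELISA.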

For the compound `COc1cc2c(cc1Nc1ncc(Cl)c(N3CC(C)(C#N)c4ccccc43)n1)CN(C)CC2` (stereo not shown) [Example 121, 1-(5-Chloro-2-((6-methoxy-2-methyl-1,2,3,4-tetrahydroisoquinolin-7-yl)amino)pyrimidin-4-yl)-3-methylindoline-3-carbonitrile], the maximal fold induction was less than 2.
Regarding `CNC(=O)C1(C)CN(c2nc(Nc3cc4c(cc3OC)CCN(C)C4)ncc2Cl)c2ccccc21` (stereo not shown) [Example 122], the maximal fold induction is less than 2.
Usually EC50 stands for the concentration at which the effect is half-maximal. `COc1cc2c(cc1Nc1ncc(Cl)c(N3CC(C)(CO)c4ccccc43)n1)CN(C)CC2` (stereo not shown) [Example 123]: the maximal fold induction was less than 2 and the EC50 was 100 to 500 nM.
In the case of `COc1cc2c(cc1Nc1ncc(Cl)c(N3CC(C)(C(=O)O)c4cc(F)ccc43)n1)CN(C)CC2` (stereo not shown) [Example 125], the EC (2-fold response) was not above 0.1 µM, the maximal fold induction was more than 2 and the EC50 was not above 100 nM.
On the same counts, the results for `COc1cc2c(cc1Nc1ncc(Cl)c(N3CC(C)(C(=O)O)c4ccc(F)cc43)n1)CN(C)CC2` (stereo not shown) [Example 126] are not above 0.1 µM, more than 2 and not above 100 nM.
In the case of `COc1cc2c(cc1Nc1ncc(Cl)c(N3CC(CC(=O)O)c4ccccc43)n1)CN(C)CC2` (stereo not shown) [Example 128], the EC (2-fold response) lay in the range of 0.1 to 0.5 µM, the maximal fold induction was more than 2 and the EC50 was 100 to 500 nM.
Take `COc1cc2c(cc1Nc1ncc(Cl)c(-n3cc(CC(=O)O)c4ccccc43)n1)CN(C)CC2` [Example 129]: the EC (2-fold response) was 0.1 to 0.5 µM, the maximal fold induction was more than 2 and the EC50 is 100 to 500 nM.
`COc1cc2c(cc1Nc1ncc(Cl)c(-n3cc(CC(=O)OC(C)C)c4ccccc43)n1)CN(C)CC2` [Example 130, Isopropyl 2-(1-(5-chloro-2-((6-methoxy-2-methyl-1,2,3,4-tetrahydroisoquinolin-7-yl)amino)pyrimidin-4-yl)-1H-indol-3-yl)acetate]: the maximal fold induction is less than 2.
On to `COc1cc2c(cc1Nc1ncc(Cl)c(-n3cc(CC(N)=O)c4ccccc43)n1)CN(C)CC2` [Example 133], for which the maximal fold induction was less than 2 and the EC50 is more than 1000 nM.
Regarding `COc1cc2c(cc1Nc1ncc(Cl)c(-n3cc(CC#N)c4ccccc43)n1)CN(C)CC2` [Example 134], the maximal fold induction is less than 2 and the concentration for a half-maximal effect (EC50) is more than 1000 nM.
`COc1cc2c(cc1Nc1ncc(Cl)c(-n3cc(Cc4nn[nH]n4)c4ccccc43)n1)CN(C)CC2` [Example 135, N-(4-(3-((2H-tetrazol-5-yl)methyl)-1H-indol-1-yl)-5-chloropyrimidin-2-yl)-6-methoxy-2-methyl-1,2,3,4-tetrahydroisoquinolin-7-amine]: the maximal fold induction is less than 2 and the EC50 was more than 1000 nM.
On the same counts, the results for `CNC(=O)Cc1cn(-c2nc(Nc3cc4c(cc3OC)CCN(C)C4)ncc2Cl)c2ccccc12` [Example 136] are less than 2 and 500 to 1000 nM.
As for `COc1cc2c(cc1Nc1ncc(Cl)c(-n3cc(CC(=O)NCC#N)c4ccccc43)n1)CN(C)CC2` [Example 137], the maximal fold induction was less than 2 and the EC50 was 500 to 1000 nM.
Consider `COc1cc2c(cc1Nc1ncc(Cl)c(-n3cc(CC(=O)O)c4cc(F)ccc43)n1)CN(C)CC2` [Example 138], for which the EC (2-fold response) was in the range of 0.1 to 0.5 µM, the maximal fold induction is more than 2 and the EC50 was 100 to 500 nM.
`COc1cc2c(cc1Nc1ncc(Cl)c(-n3cc(CC(=O)O)c4ccc(F)cc43)n1)CN(C)CC2` [Example 139]: the EC (2-fold response) is not above 0.1 µM, the maximal fold induction is more than 2 and the EC50 was not above 100 nM.
As to `COc1cc2c(cc1Nc1ncc(Cl)c(-n3cc(CC(=O)O)c4cc(F)c(F)cc43)n1)CN(C)CC2` [Example 140], the EC (2-fold response) was 0.1 to 0.5 µM, the maximal fold induction is more than 2 and the EC50 was 100 to 500 nM.
For the compound `COc1cc2c(cc1Nc1ncc(Cl)c(-n3nc(CC(=O)O)c4ccccc43)n1)CN(C)CC2` [Example 141], the maximal fold induction was more than 2; the EC50 is more than 1000 nM; the “EC2x (nM)” value was “++ (“++”, for higher values than “+++” but less than or equal to 1 μM)”.
As for `COc1cc2c(cc1Nc1ncc(Cl)c(-n3cc(C(C)C(=O)O)c4ccccc43)n1)CN(C)CC2` (stereo not shown) [Example 142], the maximal fold induction is less than 2 and the EC50 was 100 to 500 nM.
As to `COC(=O)CC1(C)CN(c2nc(Nc3cc4c(cc3OC)CCN(C)C4)ncc2Cl)c2ccccc21` (stereo not shown) [Example 145], the maximal fold induction was less than 2.
Consider `COc1cc2c(cc1Nc1ncc(Cl)c(N3CC(C)(CC(=O)O)c4ccccc43)n1)CN(C)CC2` (stereo not shown) [Example 146], for which the EC (2-fold response) was not above 0.1 µM, the maximal fold induction was more than 2 and the EC50 is not above 100 nM.
For the compound `CCOC(=O)CC1(C)CN(c2nc(Nc3cc4c(cc3OC)CCN(C)C4)ncc2Cl)c2ccccc21` (stereo not shown) [Example 149], the maximal fold induction was less than 2.
For the compound `COc1cc2c(cc1Nc1ncc(Cl)c(N3CC(C)(CC(=O)O)c4cc(F)ccc43)n1)CN(C)CC2` (stereo not shown) [Example 150, 2-(1-(5-Chloro-2-((6-methoxy-2-methyl-1,2,3,4-tetrahydroisoquinolin-7-yl)amino)pyrimidin-4-yl)-5-fluoro-3-methylindolin-3-yl)acetic acid], the EC (2-fold response) was not above 0.1 µM, the maximal fold induction is more than 2 and the concentration giving a half-maximal response (EC50) is not above 100 nM.
Regarding `COc1cc2c(cc1Nc1ncc(Cl)c(N3CC(C)(CC(=O)O)c4ccc(F)cc43)n1)CN(C)CC2` (stereo not shown) [Example 151], the EC (2-fold response) was not above 0.1 µM, the maximal fold induction was more than 2 and the EC50 was not above 100 nM.
With `COc1cc2c(cc1Nc1ncc(Cl)c(N3CC(C)(CC(=O)O)c4cc(F)c(F)cc43)n1)CN(C)CC2` (stereo not shown) [Example 154], the EC (2-fold response) was not above 0.1 µM, the maximal fold induction was more than 2 and the EC50 is not above 100 nM.
`CN1CCc2cc(F)c(Nc3ncc(Cl)c(N4CC(C)(CC(=O)O)c5ccccc54)n3)cc2C1` (stereo not shown) [Example 156]: the EC (2-fold response) was not above 0.1 µM, the maximal fold induction was more than 2 and the concentration for a half-maximal effect (EC50) was not above 100 nM.
On the same counts, the results for `CCN1CCc2cc(OC)c(Nc3ncc(Cl)c(N4CC(C)(CC(=O)O)c5ccccc54)n3)cc2C1` (stereo not shown) [Example 157, 2-(1-(5-Chloro-2-((2-ethyl-6-methoxy-1,2,3,4-tetrahydroisoquinolin-7-yl)amino)pyrimidin-4-yl)-3-methylindolin-3-yl)acetic acid] are not above 0.1 µM, more than 2 and not above 100 nM.
`COc1cc2c(cc1Nc1ncc(Cl)c(N3CC(C)(CC(=O)O)c4ccccc43)n1)CN(C(C)C)CC2` (stereo not shown) [Example 158, 2-(1-(5-Chloro-2-((2-isopropyl-6-methoxy-1,2,3,4-tetrahydroisoquinolin-7-yl)amino)pyrimidin-4-yl)-3-methylindolin-3-yl)acetic acid]: the EC (2-fold response) was not above 0.1 µM, the maximal fold induction was more than 2 and the EC50 was not above 100 nM.
Consider `COc1cc2c(cc1Nc1ncc(Cl)c(N3CC(C)(CC(=O)O)c4ccccc43)n1)CN(C)C2` (stereo not shown) [Example 159, 2-(1-(5-Chloro-2-((6-methoxy-2-methylisoindolin-5-yl)amino)pyrimidin-4-yl)-3-methylindolin-3-yl)acetic acid], for which the EC (2-fold response) was not above 0.1 µM, the maximal fold induction was more than 2 and the concentration giving a half-maximal response (EC50) was not above 100 nM.
On the same counts, the results for `COc1cc2c(cc1Nc1ncc(Cl)c(N3CC(C)(CC(=O)O)c4ccccc43)n1)CNCC2` (stereo not shown) [Example 160, 2-(1-(5-Chloro-2-((6-methoxy-1,2,3,4-tetrahydroisoquinolin-7-yl)amino)pyrimidin-4-yl)-3-methylindolin-3-yl)acetic acid methanesulfonic acid] are not above 0.1 µM, more than 2 and not above 100 nM.
Take `COc1cc2c(cc1Nc1ncc(Cl)c(-c3cn(CC(=O)O)c4ccccc34)n1)CN(C)CC2` [Example 161]: the maximal fold induction is more than 2; the EC50 is more than 1000 nM; the “EC2x (nM)” value is given as “+ (“+”, for greater than 1 μM)”.
On to `COc1cc2c(cc1Nc1ncc(Cl)c(-c3nn(CC(=O)O)c4ccccc34)n1)CN(C)CC2` [Example 162, 2-(3-(5-Chloro-2-((6-methoxy-2-methyl-1,2,3,4-tetrahydroisoquinolin-7-yl)amino)pyrimidin-4-yl)-1H-indazol-1-yl)acetic acid], for which the maximal fold induction is less than 2.
In the case of `COc1cc2c(cc1Nc1nccc(N3CC(C(=O)O)c4ccccc43)n1)CN(C)CC2` (stereo not shown) [Example 163, 1-(2-((6-Methoxy-2-methyl-1,2,3,4-tetrahydroisoquinolin-7-yl)amino)pyrimidin-4-yl)indoline-3-carboxylic acid], the maximal fold induction is more than 2; the EC50 is more than 1000 nM; the “EC2x (nM)” value is given as “+ (“+”, for greater than 1 μM)”.
For `COc1cc2c(cc1Nc1ncc3cc(C#N)n(-c4ccccc4)c3n1)CN(C)CC2` [Example 164, 2-((6-Methoxy-2-methyl-1,2,3,4-tetrahydroisoquinolin-7-yl)amino)-7-phenyl-7H-pyrrolo[2,3-d]pyrimidine-6-carbonitrile], the maximal fold induction is less than 2 and the EC50 was not above 100 nM.
As to `COc1cc2c(cc1Nc1ncc(Cl)c(N3CC(C(=O)O)C4(CCCCC4)C3)n1)CN(C)CC2` (stereo not shown) [Example 167, 2-(5-Chloro-2-((6-methoxy-2-methyl-1,2,3,4-tetrahydroisoquinolin-7-yl)amino)pyrimidin-4-yl)-2-azaspiro[4.5]decane-4-carboxylic acid], the EC (2-fold response) was 0.1 to 0.5 µM, the maximal fold induction was more than 2 and the EC50 is 500 to 1000 nM.

Source of the values: patent US12612424B2, “HPK1 inhibitors and uses thereof” (Regor Pharmaceuticals, Inc., priority 2019, dated 2026).
